Laboratory results reported in ChEMBL document CHEMBL3351663, “Discovery of acylurea isosteres of 2-acylaminothiadiazole in the azaxanthene series of glucocorticoid receptor agonists” (Bioorg Med Chem Lett, 2014).
pEC50, pKi: −log10 of the molar value.

How the values were obtained:
Glucocorticoid receptor [1] = target: T1, Glucocorticoid receptor (Homo sapiens, UniProt P04150); assay: Agonist activity at glucocorticoid receptor in human A549 cells assessed as E-selectin transrepression by luciferase reporter gene assay; type: cell-based
T1 sequence (P04150 whole entry): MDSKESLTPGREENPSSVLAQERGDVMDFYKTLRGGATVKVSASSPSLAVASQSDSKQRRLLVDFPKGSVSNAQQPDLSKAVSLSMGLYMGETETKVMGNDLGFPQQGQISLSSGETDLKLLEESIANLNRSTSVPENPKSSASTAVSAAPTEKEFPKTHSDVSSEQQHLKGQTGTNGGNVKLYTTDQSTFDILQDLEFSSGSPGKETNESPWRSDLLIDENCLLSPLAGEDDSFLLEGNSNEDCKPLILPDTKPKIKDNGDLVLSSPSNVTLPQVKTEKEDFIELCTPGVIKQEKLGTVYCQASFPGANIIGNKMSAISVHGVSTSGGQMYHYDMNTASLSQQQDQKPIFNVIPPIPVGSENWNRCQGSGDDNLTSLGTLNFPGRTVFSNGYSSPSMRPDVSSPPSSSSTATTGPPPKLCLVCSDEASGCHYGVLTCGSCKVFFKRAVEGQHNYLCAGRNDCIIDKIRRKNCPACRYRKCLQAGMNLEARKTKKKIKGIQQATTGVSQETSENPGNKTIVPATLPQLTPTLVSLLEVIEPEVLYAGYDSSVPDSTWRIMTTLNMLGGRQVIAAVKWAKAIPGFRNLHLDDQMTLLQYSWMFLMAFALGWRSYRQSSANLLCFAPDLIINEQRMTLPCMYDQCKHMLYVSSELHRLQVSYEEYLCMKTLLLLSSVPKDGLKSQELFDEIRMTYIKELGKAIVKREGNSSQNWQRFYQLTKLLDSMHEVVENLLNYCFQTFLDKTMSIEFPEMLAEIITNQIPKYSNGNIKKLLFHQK

Glucocorticoid receptor [2] = target: T1, Glucocorticoid receptor; assay: Agonist activity at glucocorticoid receptor in human A549 cells assessed as AP-1 transrepression by luciferase reporter gene assay; type: cell-based
Liver = assay: Metabolic stability in mouse liver microsomes assessed as compound remaining
Glucocorticoid receptor [3] = target: T1, Glucocorticoid receptor; assay: Binding affinity to glucocorticoid receptor (unknown origin) by fluorescence polarization assay
Glucocorticoid receptor [4] = target: T1, Glucocorticoid receptor; assay: Agonist activity at glucocorticoid receptor in human HeLa cells assessed as NP-1 transactivation by luciferase reporter gene assay; type: cell-based
Liver microsome [5] = assay: Metabolic stability in human liver microsomes assessed as compound remaining
Progesterone receptor = target: T2, Progesterone receptor (Homo sapiens, UniProt P06401); assay: Binding affinity to progesterone receptor (unknown origin) by fluorescence polarization assay
T2 sequence (P06401 whole entry): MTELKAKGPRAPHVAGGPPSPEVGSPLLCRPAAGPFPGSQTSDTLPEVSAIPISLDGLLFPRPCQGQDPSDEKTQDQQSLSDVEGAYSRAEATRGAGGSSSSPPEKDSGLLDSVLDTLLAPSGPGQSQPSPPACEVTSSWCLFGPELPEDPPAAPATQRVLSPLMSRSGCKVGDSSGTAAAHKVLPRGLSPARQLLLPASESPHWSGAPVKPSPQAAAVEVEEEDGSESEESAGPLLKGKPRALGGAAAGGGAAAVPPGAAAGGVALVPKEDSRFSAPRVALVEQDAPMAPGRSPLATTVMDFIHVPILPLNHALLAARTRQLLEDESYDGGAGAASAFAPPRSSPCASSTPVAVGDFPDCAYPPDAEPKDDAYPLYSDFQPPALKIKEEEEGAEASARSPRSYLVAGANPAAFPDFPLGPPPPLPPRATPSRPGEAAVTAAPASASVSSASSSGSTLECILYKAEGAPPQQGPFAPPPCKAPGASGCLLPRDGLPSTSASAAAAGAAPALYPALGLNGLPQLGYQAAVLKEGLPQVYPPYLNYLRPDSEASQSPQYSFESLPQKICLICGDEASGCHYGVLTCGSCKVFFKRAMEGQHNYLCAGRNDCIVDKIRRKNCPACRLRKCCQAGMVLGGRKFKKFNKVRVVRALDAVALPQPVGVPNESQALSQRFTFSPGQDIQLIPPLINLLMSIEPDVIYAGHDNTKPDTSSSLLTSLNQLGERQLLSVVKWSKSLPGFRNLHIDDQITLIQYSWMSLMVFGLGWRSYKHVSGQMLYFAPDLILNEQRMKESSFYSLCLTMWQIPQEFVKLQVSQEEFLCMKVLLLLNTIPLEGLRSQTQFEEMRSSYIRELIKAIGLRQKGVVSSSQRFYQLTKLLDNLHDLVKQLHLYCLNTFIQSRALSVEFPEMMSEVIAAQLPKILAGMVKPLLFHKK

Liver microsome [6] = assay: Metabolic stability in rat liver microsomes assessed as compound remaining
Glucocorticoid receptor [7] = target: T1, Glucocorticoid receptor; parameters: species or system Blood
Rattus norvegicus [8] = assay: Antiinflammatory activity in Lewis rat assessed as inhibition of LPS-induced TNF-alpha production at 30 mg/kg, po administered 90 mins prior to LPS challenge measured after 90 mins relative to vehicle-treated control; type: functional
[9] = Clearance in iv dosed dog; type: ADME, organism-based, Canis lupus familiaris; settings: in vivo
[10] = Half life in human liver microsomes; settings: liver microsomes
[11] = Half life in dog liver microsomes; type: ADME, Canis lupus familiaris
[12] = Drug uptake in Lewis rat serum at 10 mg/kg, po after 3 hrs; type: ADME, organism-based; parameters: dose 10 mg/kg, route oral; settings: read-out: Drug uptake
[13] = Oral bioavailability in dog at 5 mg/kg; type: ADME, organism-based, Canis lupus familiaris; settings: in vivo
Rattus norvegicus [14] = species on record: Rattus norvegicus; assay: animal or person; type: functional; settings: Lewis, route oral
[15] = Half life in rat liver microsomes; type: ADME
[16] = Oral bioavailability in rat at 10 mg/kg; type: ADME, organism-based; settings: in vivo
[17] = Clearance in rat at 1 mg/kg, iv; type: ADME, organism-based; parameters: dose 1 mg/kg, route intravenous; settings: in vivo

| SMILES | pEC50 (Glucocorticoid receptor [1]) | pEC50 (Glucocorticoid receptor [2]) | Stability (Liver) [%] | pKi (Glucocorticoid receptor [3]) | pEC50 (Glucocorticoid receptor [4]) | Stability (Liver microsome [5]) [%] | pKi (Progesterone receptor) | Stability (Liver microsome [6]) [%] | pEC50 (Glucocorticoid receptor [7]) | further results |
| --- | --- | --- | --- | --- | --- | --- | --- | --- | --- | --- |
| CC(C)(C(=O)NC(=O)NC1CCC1)[C@@H]1c2ccc(-c3ccc(C(=O)N4CCOCC4)cc3)nc2Oc2c(F)cccc21 | 7.48 | 7.76 |  | 8.06 | 6.17 |  | 5.27 |  | 5.62 |  |
| CC(=O)NC(=O)C(C)(C)[C@@H]1c2ccc(-c3ccc(C(=O)N4CCOCC4)cc3)nc2Oc2c(F)cccc21 | 8.49 | 8.30 |  | 8.23 | 7.85 |  | 6.57 |  | 7.06 |  |
| COc1ccc(CNC(=O)NC(=O)C(C)(C)[C@@H]2c3ccc(-c4ccc(C(=O)N5CCOCC5)cc4)nc3Oc3c(F)cccc32)cc1 |  |  |  |  |  |  | 6.21 |  |  |  |
| CC(C)(C(=O)NC(N)=O)[C@@H]1c2ccc(-c3ccc(C(=O)N4CCOCC4)nc3)nc2Oc2c(F)cccc21 |  |  |  |  |  |  | 7.64 |  |  |  |
| CNC(=O)NC(=O)C(C)(C)[C@@H]1c2ccc(-c3ccc(C(=O)N4CCOCC4)cc3)nc2Oc2c(F)cccc21 | 7.79 | 7.97 |  | 8.16 | 6.52 |  | 5.93 |  | 5.99 |  |
| C[C@@H]1C[C@H]2[C@@H]3CCC4=CC(=O)C=C[C@]4(C)[C@@]3(F)[C@@H](O)C[C@]2(C)[C@@]1(O)C(=O)CO [DEXAMETHASONE] |  |  |  |  |  |  | 6.11 |  |  |  |
| CCNC(=O)NC(=O)C(C)(C)[C@@H]1c2ccc(-c3ccc(C(=O)N4CCOCC4)cc3)nc2Oc2c(F)cccc21 |  |  |  |  |  |  | 5.54 |  |  |  |
| CC(C)C(=O)NC(=O)C(C)(C)[C@@H]1c2ccc(-c3ccc(C(=O)N4CCOCC4)cc3)nc2Oc2c(F)cccc21 | 7.13 | 7.63 |  |  | 5.98 |  | 5.30 |  | 6.41 |  |
| CC(C)(C(=O)NC(=O)C1CC1)[C@@H]1c2ccc(-c3ccc(C(=O)N4CCOCC4)cc3)nc2Oc2c(F)cccc21 | 7.75 | 7.74 |  | 8.07 | 6.75 |  | 5.69 |  | 6.38 |  |
| CC(C)(C(=O)NC(N)=O)[C@@H]1c2ccc(-c3ccc(C(=O)N4CCCC4)nc3)nc2Oc2c(F)cccc21 | 7.91 | 7.78 | 86 | 8.70 | 6.95 | 73 | 5.87 | 86 | 6.68 |  |
| C[C@]12C=CC(=O)C=C1CC[C@@H]1[C@@H]2[C@@H](O)C[C@@]2(C)[C@H]1CC[C@]2(O)C(=O)CO [PREDNISOLONE] |  |  |  |  |  |  |  |  |  | inhibition in vivo at 30 mg/kg (Rattus norvegicus [8]): 75% |
| CC(C)(C(=O)NC(=O)C1CCC1)[C@@H]1c2ccc(-c3ccc(C(=O)N4CCOCC4)cc3)nc2Oc2c(F)cccc21 | 7.48 | 7.76 |  | 8.06 | 6.23 |  | 5.27 |  | 5.62 |  |
| CC(C)Oc1ccc(-c2ccc3c(n2)Oc2c(F)cccc2[C@@H]3C(C)(C)C(=O)NC(N)=O)cn1 | 8.42 | 8.17 | 86 | 9.15 | 7.23 | 97 | 6.51 | 58 | 6.45 | clearance [9]: 9 mL/min/kg; half-life [10]: 3.18 h; half-life [11]: 1.63 h; concentration at 3 h [12]: 500 nM; bioavailability [13]: 82%; inhibition in vivo at 10 mg/kg (Rattus norvegicus [14]): 69%; half-life [15]: 0.233 h; bioavailability [16]: 25.7%; clearance [17]: 20.8 mL/min/kg |
| CC(C)(O)c1ccc(-c2ccc3c(n2)Oc2c(F)cccc2[C@@H]3C(C)(C)C(=O)NC(N)=O)cn1 | 7.83 | 7.66 | 76 | 8.40 | 6.97 | 73 | 6.97 | 83 | 6.70 |  |

More lines, main results first:

| pEC50 (Glucocorticoid receptor [1]) | pEC50 (Glucocorticoid receptor [2]) | Stability (Liver) [%] | pKi (Glucocorticoid receptor [3]) | pEC50 (Glucocorticoid receptor [4]) | Stability (Liver microsome [5]) [%] | pKi (Progesterone receptor) | Stability (Liver microsome [6]) [%] | pEC50 (Glucocorticoid receptor [7]) | SMILES | further results |
| --- | --- | --- | --- | --- | --- | --- | --- | --- | --- | --- |
| 8.85 | 8.80 | 73 | 9.15 | 8.28 | 89 | 6.22 | 71 |  | CC(C)(C(=O)NC(N)=O)[C@@H]1c2ccc(-c3ccc(C(=O)N4CCCC4)cc3)nc2Oc2c(F)cccc21 |  |
| 6.96 | 6.67 |  | 7.16 | 5.98 |  | 4.91 |  | 5.72 | CC(=O)NC(=O)C(C)(C)[C@@H]1c2ccc(-c3ccc(C(=O)N(C)C)cc3)nc2Oc2c(F)cccc21 |  |
| 8.32 | 8.21 | 75 | 8.82 | 7.96 | 95 | 6.55 | 86 | 5.52 | CC(C)(C(=O)NC(N)=O)[C@H]1c2ccccc2Oc2nc(-c3ccc(C(=O)N4CCOCC4)cc3)ccc21 |  |
| 9.22 | 9.10 | 77 | 8.92 | 8.89 | 56 | 4.48 | 67 |  | CC(C)(C(=O)NC(N)=O)[C@@H]1c2ccc(-c3ccc(C(=O)N4CC[C@H](F)C4)cc3)nc2Oc2c(F)cccc21 |  |
| 8.16 | 7.75 |  | 8.80 | 7.01 |  | 5.74 |  | 6.42 | CCN(C)C(=O)c1ccc(-c2ccc3c(n2)Oc2ccccc2[C@@H]3C(C)(C)C(=O)Nc2nncs2)cc1 |  |
| 6.69 | 6.04 |  | 6.96 | 5.05 |  | 4.97 |  |  | CN(C)C(=O)NC(=O)C(C)(C)[C@@H]1c2ccc(-c3ccc(C(=O)N4CCOCC4)cc3)nc2Oc2c(F)cccc21 |  |
| 8.30 | 8.06 | 76 | 8.72 | 7.31 | 78 | 5.63 | 49 | 6.68 | CC(C)(C(=O)NC(N)=O)[C@H]1c2ccccc2Oc2nc(-c3ccc(C(=O)N4CCCC4)cc3)ccc21 |  |
| 8.44 | 8.29 |  | 8.60 | 7.57 |  | 4.91 |  | 6.66 | CC(=O)NC(=O)C(C)(C)[C@@H]1c2ccc(-c3ccc(C(=O)N4CCCC4)cc3)nc2Oc2c(F)cccc21 |  |
| 7.47 | 7.48 |  | 8.72 | 6.62 |  | 5.82 |  | 6.08 | CN(C)C(=O)c1ccc(-c2ccc3c(n2)Oc2ccccc2[C@@H]3C(C)(C)C(=O)Nc2nncs2)cc1 |  |
